According to patent publication US12428430B2 (BRISTOL-MYERS SQUIBB COMPANY, priority 2018, dated 2025):

Molecular target: hLPA1 (Homo sapiens, UniProt Q92633)
Experiment: LPA1 functional antagonist assay (LPA-induced calcium flux in CHO cells overexpressing human LPA1)
Assay type: cell-based
Parameters: expressed in transfected cells; host or cells: Chinese hamster ovary (CHO) cells
Conditions: antagonist mode, inhibition of calcium flux induced by 10 nM LPA, read-out: hLPA1 IC50
Protocol: The effectiveness of compounds of the present invention as LPA1 inhibitors can be determined in an LPA1 functional antagonist assay as follows:
Chinese hamster ovary cells overexpressing human LPA1 were plated overnight (15,000 cells/well) in poly-D-lysine coated 384-well microplates (Greiner bio-one, Cat #781946) in DMEM/F12 medium (Gibco, Cat #11039). Following overnight culture, cells were loaded with calcium indicator dye (AAT Bioquest Inc, Cat #34601) for 30 minutes at 37° C. The cells were then equilibrated to room temperature for 30 minutes before the assay. Test compounds solubilized in DMSO were transferred to 384 well non-binding surface plates (Corning, Cat #3575) using the Labcyte Echo acoustic dispense and diluted with assay buffer [1×HBSS with calcium/magnesium (Gibco Cat #14025-092), 20 mM HEPES (Gibco Cat #15630-080) and 0.1% fatty acid free BSA (Sigma Cat #A9205)] to a final concentration of 0.5% DMSO. Diluted compounds were added to the cells by FDSS6000 (Hamamatsu) at final concentrations ranging from 0.08 nM to 5 μM. and were then incubated for 20 min at room temperature at which time LPA (Avanti Polar Lipids Cat #857130C) was added at final concentrations of 10 nM to stimulate the cells. The compound IC50 value was defined as the concentration of test compound which inhibited 50% of the calcium flux induced by LPA alone. IC50 values were determined by fitting data to a 4-parameter logistic equation (GraphPad Prism, San Diego Calif.).

Chain of hLPA1 (Q92633 whole entry): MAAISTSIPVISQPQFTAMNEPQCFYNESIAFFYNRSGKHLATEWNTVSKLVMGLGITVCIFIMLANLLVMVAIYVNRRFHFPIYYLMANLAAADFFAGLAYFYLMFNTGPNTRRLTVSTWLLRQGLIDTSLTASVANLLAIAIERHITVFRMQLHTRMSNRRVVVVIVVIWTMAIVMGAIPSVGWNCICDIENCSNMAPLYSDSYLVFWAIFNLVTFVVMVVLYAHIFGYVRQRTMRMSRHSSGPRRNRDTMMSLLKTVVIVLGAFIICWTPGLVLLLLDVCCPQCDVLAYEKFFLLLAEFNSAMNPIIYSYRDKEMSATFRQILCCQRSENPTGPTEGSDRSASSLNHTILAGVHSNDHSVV

| Molecule | IC50 [nM] |
| --- | --- |
| Cc1noc(-c2ccc(C34CCC(CC(=O)O)(CC3)OC4)cc2)c1COC(=O)N(C)C1CCCC1 [Example 3, 2-(4-(4-(4-(((cyclopentyl(methyl)carbamoyl)oxy)methyl)-3-methylisoxazol-5-yl)phenyl)-2-oxabicyclo[2.2.2]octan-1-yl)acetic acid] | 317 |
| CC(OC(=O)Nc1c(-c2ccc(C34CCC(CC(=O)O)(CC3)OC4)c(F)c2)cnn1C)c1ccc(Cl)cc1 (racemic) [Example 29, (±)-2-(4-(4-(5-(((1-(4-chlorophenyl)ethoxy)carbonyl)amino)-1-methyl-1H-pyrazol-4-yl)-2-fluorophenyl)-2-oxabicyclo[2.2.2]octan-1-yl)acetic acid] | 1140 |
| Cc1ccccc1[C@@H](C)OC(=O)Nc1c(C)noc1-c1ccc(C23CCC(CC(=O)O)(CC2)OC3)cc1 [Example 13, 2-(4-(4-(3-methyl-4-((((R)-1-(o-tolyl)ethoxy)carbonyl)amino)isoxazol-5-yl)phenyl)-2-oxabicyclo[2.2.2]octan-1-yl)acetic acid] | 184 |
| Cc1noc(-c2ccc(C34CCC(CC(=O)O)(CC3)OC4)cc2F)c1NC(=O)O[C@H](C)C1CC1 [Example 20, 2-(4-(4-(4-((((R)-1-cyclopropylethoxy)carbonyl)amino)-3-methylisoxazol-5-yl)-3-fluorophenyl)-2-oxabicyclo[2.2.2]octan-1-yl)acetic acid] | 863 |
| CN(C(=O)OCc1c(-c2ccc(C34CCC(CC(=O)O)(CC3)OC4)cc2F)cnn1C)C1CCCC1 [Example 44, 2-(4-(4-(5-(((cyclopentyl(methyl)carbamoyl)oxy)methyl)-1-methyl-1H-pyrazol-4-yl)-3-fluorophenyl)-2-oxabicyclo[2.2.2]octan-1-yl)acetic acid] | 1860 |
| Cc1noc(-c2ccc(C34CCC(CC(=O)O)(CC3)CO4)cc2)c1NC(=O)O[C@H](C)C1CC1 [Example 47, 2-(1-(4-(4-((((R)-1-cyclopropylethoxy)carbonyl)amino)-3-methylisoxazol-5-yl)phenyl)-2-oxabicyclo[2.2.2]octan-4-yl)acetic acid] | 583 |
| CC(C1CCC1)N(C)C(=O)OCc1c(-c2ccc(C34CCC(CC(=O)O)(CC3)OC4)cc2)cnn1C (racemic) [Example 37, (rac)-2-(4-(4-(5-((((1-cyclobutyl-ethyl)(methyl)carbamoyl)oxy)methyl)-1-methyl-1H-pyrazol-4-yl)phenyl)-2-oxabicyclo[2.2.2]octan-1-yl)acetic acid] | 166 |
| Cc1noc(-c2ccc(C34CCC(CC(=O)O)(CC3)OC4)c(F)c2)c1NC(=O)O[C@H](C)C1CC1 [Example 16, 2-(4-(4-(4-((((R)-1-cyclopropylethoxy)carbonyl)amino)-3-methylisoxazol-5-yl)-2-fluorophenyl)-2-oxabicyclo[2.2.2]octan-1-yl)acetic acid] | 407 |
| 2-(4-(4-(4-((((cyclobutylmethyl)(methyl)carbamoyl)oxy)methyl)-3-methylisoxazol-5-yl)phenyl)-2-oxabicyclo[2.2.2]octan-1-yl)acetic acid [Example 34] | 158 |
| C[C@@H](OC(=O)Nc1c(-c2ccc(C34CCC(CC(=O)O)(CC3)OC4)cc2)cnn1CC1CC1)c1ccccc1 [Example 10, (R)-2-(4-(4-(1-(cyclopropylmethyl)-5-(((1-phenylethoxy)carbonyl)amino)-1H-pyrazol-4-yl)phenyl)-2-oxabicyclo[2.2.2]octan-1-yl)acetic acid] | 422 |
| Cc1cc(C23CCC(CC(=O)O)(CC2)OC3)ccc1-c1onc(C)c1NC(=O)O[C@H](C)c1ccccc1Cl [Example 27, 2-(4-(4-(4-((((R)-1-(2-chlorophenyl)ethoxy)carbonyl)amino)-3-methyl-isoxazol-5-yl)-3-methylphenyl)-2-oxabicyclo[2.2.2]octan-1-yl)acetic acid] | 185 |
| Cc1noc(-c2ccc(C34CCC(CC(=O)O)(CC3)OC4)cc2F)c1NC(=O)OC(C)c1ccc(Cl)cc1 (racemic) [Example 24, (±)-2-(4-(4-(4-(((1-(4-chlorophenyl)ethoxy)carbonyl)amino)-3-methyl-isoxazol-5-yl)-3-fluorophenyl)-2-oxabicyclo[2.2.2]octan-1-yl)acetic acid] | 406 |
| CN(C(=O)OCc1c(-c2ccc(C34CCC(CC(=O)O)(CC3)OC4)cc2)cnn1C)C1CCCC1 [Example 4, 2-(4-(4-(5-(((cyclopentyl(methyl)carbamoyl)oxy)methyl)-1-methyl-1H-pyrazol-4-yl)phenyl)-2-oxabicyclo[2.2.2]octan-1-yl)acetic acid] | 1610 |
| Cc1noc(-c2ccc(C34CCC(CC(=O)O)(CC3)OC4)cc2)c1NC(=O)O[C@H](C)C1CC1 [Example 11, 2-(4-(4-(4-((((R)-1-cyclopropyl-ethoxy)carbonyl)amino)-3-methylisoxazol-5-yl)phenyl)-2-oxabicyclo[2.2.2]octan-1-yl)acetic acid] | 194 |
| Cc1ccccc1[C@@H](C)OC(=O)Nc1c(C)noc1-c1ccc(C23CCC(CC(=O)O)(CC2)CO3)cc1 [Example 49, 2-(1-(4-(3-methyl-4-((((R)-1-(o-tolyl)ethoxy)carbonyl)amino)isoxazol-5-yl)phenyl)-2-oxabicyclo[2.2.2]octan-4-yl)acetic acid] | 303 |
| Cn1ncc(-c2ccc(C34CCC(CC(=O)O)(CC3)OC4)cc2)c1COC(=O)N1CC[C@H](F)C1 [Example 38, 2-(4-(4-(5-((((S)-3-fluoropyrrolidine-1-carbonyl)oxy)methyl)-1-methyl-1H-pyrazol-4-yl)phenyl)-2-oxabicyclo[2.2.2]octan-1-yl)acetic acid] | 1900 |
| CN(C(=O)OCc1c(-c2ccc(C34CCC(CC(=O)O)(CC3)OC4)c(F)c2)nnn1C)C1CCCC1 [Example 6, 2-(4-(4-(5-(((Cyclopentyl(methyl)carbamoyl)oxy)methyl)-1-methyl-1H-1,2,3-triazol-4-yl)-2-fluorophenyl)-2-oxabicyclo[2.2.2]octan-1-yl)acetic acid] | 363 |

The remaining lines, values ahead:

| IC50 [nM] | Molecule |
| --- | --- |
| 98 | Cc1ccccc1[C@@H](C)OC(=O)Nc1c(C)noc1-c1ccc(C23CCC(CC(=O)O)(CC2)OC3)cc1F [Example 23, 2-(4-(3-fluoro-4-(3-methyl-4-((((R)-1-(o-tolyl)ethoxy)carbonyl)amino)isoxazol-5-yl)phenyl)-2-oxabicyclo[2.2.2]octan-1-yl)acetic acid] |
| 56 | Cc1noc(-c2ccc(C34CCC(CC(=O)O)(CC3)OC4)c(F)c2)c1NC(=O)O[C@H](C)c1ccccc1Cl [Example 18, 2-(4-(4-(4-((((R)-1-(2-chlorophenyl)ethoxy)carbonyl)amino)-3-methyl-isoxazol-5-yl)-2-fluorophenyl)-2-oxabicyclo[2.2.2]octan-1-yl)acetic acid] |
| 95 | Cc1noc(-c2cccc(C34CCC(CC(=O)O)(CC3)OC4)c2)c1NC(=O)O[C@H](C)c1ccccc1Cl [Example 59, 2-(4-(3-(4-((((R)-1-(2-chlorophenyl)ethoxy)carbonyl)amino)-3-methylisoxazol-5-yl)phenyl)-2-oxabicyclo[2.2.2]octan-1-yl)acetic acid] |
| 157 | Cc1noc(-c2ccc(C34CCC(CCC(=O)O)(CC3)CO4)cc2)c1NC(=O)O[C@H](C)c1ccccc1 [Example 58, 3-(1-(4-(3-methyl-4-((((R)-1-phenylethoxy)carbonyl)amino)isoxazol-5-yl)phenyl)-2-oxabicyclo[2.2.2]octan-4-yl)propanoic acid] |
| 88 | C[C@@H](OC(=O)Nc1c(-c2ccc(C34CCC(CC(=O)O)(CC3)OC4)cc2)cnn1C)c1ccccc1 [Example 2, 2-(4-(4-(1-methyl-5-((((R)-1-phenylethoxy)carbonyl)amino)-1H-pyrazol-4-yl)phenyl)-2-oxabicyclo[2.2.2]octan-1-yl)acetic acid] |
| 72 | Cc1noc(-c2ccc(C34CCC(CC(=O)O)(CC3)OC4)cc2)c1NC(=O)O[C@H](C)c1ccccc1Cl [Example 12, 2-(4-(4-(4-((((R)-1-(2-chlorophenyl)ethoxy)carbonyl)amino)-3-methylisoxazol-5-yl)phenyl)-2-oxabicyclo[2.2.2]octan-1-yl)acetic acid] |
| 41 | Cc1noc(-c2ccc(C34CCC(CC(=O)O)(CC3)OC4)c(F)c2)c1NC(=O)O[C@H](C)c1ccccc1 [Example 57, 2-(4-(2-fluoro-4-(3-methyl-4-((((R)-1-phenylethoxy)carbonyl)amino)isoxazol-5-yl)phenyl)-2-oxabicyclo[2.2.2]octan-1-yl)acetic acid] |
| 64 | Cc1noc(-c2ccc(C34CCC(CC(=O)O)(CC3)OC4)cc2F)c1NC(=O)O[C@H](C)c1ccccc1Cl [Example 22, 2-(4-(4-(4-((((R)-1-(2-chlorophenyl)ethoxy)carbonyl)amino)-3-methylisoxazol-5-yl)-3-fluorophenyl)-2-oxabicyclo[2.2.2]octan-1-yl)acetic acid] |
| 93 | Cc1noc(C23CCC(c4ccc(CC(=O)O)cc4)(CC2)OC3)c1NC(=O)O[C@H](C)c1ccccc1Cl [Example 56, (R)-2-(4-(4-(4-(((1-(2-chlorophenyl)ethoxy)carbonyl)amino)-3-methyl-isoxazol-5-yl)-2-oxabicyclo[2.2.2]octan-1-yl)phenyl)acetic acid] |
